Test results: PubChem BioAssay AID463206 (Broad Institute, 2010)
Active and inactive are the calls of the source.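 How the source made its calls: active means caspase luminescence falls with dose and the half-maximal concentration AC50 from the fitted curve is at or below a set limit; inconclusive means flat fit at 30 to 70% signal loss, or invalid fit; inactive means AC50 above the limit, or signal rises instead.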

system: INS-1E cytokine-induced caspase-3/7, Caspase-Glo luminescence, 48 h; experiment: suppression of cytokine-driven beta-cell apoptosis – INS-1E rat cells, luminescence, orthogonal assay for beta-cell apoptosis protection project, dose response (AID 463206)

| Compound | AC50 |
| --- | --- |
| C#CCOCCOCCOCCNc1nc(N2CCN(C(=O)CCCCCCCCCCNC(=O)[C@H](CCCCN)n3cc(CCO)nn3)CC2)nc(N2CCN(C(=O)CCCCCCCCCCNC(=O)[C@H](CCCCN)n3cc(C[C@@H](C)CC)nn3)CC2)n1 | > 26 µM (inactive) |
| O=C(Nc1nc(-c2ccccn2)cs1)Nc1ccc(F)cc1F | > 26 µM (inactive) |
| CN1N=C(C(C)(C)C)CSC1=Nc1ccccc1 | > 26 µM (inactive) |
| CC(=O)c1c(C)oc2c1C(=O)c1ccccc1C2=O | > 26 µM (inactive) |
| CC(C)(C)Nc1nc(-c2ccccn2)nc2ccccc12 | > 26 µM (inactive) |
| O=S(=O)(NCc1ccncc1)c1ccc(Br)s1 | > 26 µM (inactive) |
| CCN(CC)c1ccc(N=Cc2ccccc2[N+](=O)[O-])cc1 | > 26 µM (inactive) |
| Cc1cc(C)c(OCC(O)CNC(C)(C)C)c(C)c1 (stereo not drawn) | > 26 µM (inactive) |
| O=C(c1ccc(-c2ccc(Cl)cc2)o1)N1CCN(c2ccc([N+](=O)[O-])cc2Cl)CC1 | > 26 µM (inactive) |
| Fc1cc(F)c2nc(Nc3nc4c(F)cccc4s3)sc2c1 | > 26 µM (inactive) |
| O=C(c1ccc(F)c(S(=O)(=O)N2CCOCC2)c1)N1CCN(c2ccc(F)cc2)CC1 | > 26 µM (inactive) |
| COc1ccc(CCNc2c3ccccc3nc3ccccc23)cc1OC | 4.3 µM |
| N#Cc1ccc(-c2ccc(Cl)cc2)nc1SCC(=O)c1cccc(Cl)c1 | > 26 µM (inactive) |
| COc1ccc(C(=O)N2CCN(c3ccc([N+](=O)[O-])c(NCCc4ccc(OC)c(OC)c4)c3)CC2)cc1 | > 26 µM (inactive) |
| Cc1ccc(C)c(S(=O)(=O)N2CCN(c3ncnc4sccc34)CC2)c1 | > 26 µM (inactive) |
| Cc1ccc(-c2csc(N3CCC(NS(=O)(=O)c4ccc5c(c4)OCCO5)CC3)n2)cc1 | > 26 µM (inactive) |
| Cc1ccccc1OCC(O)CNC1CCC(NCC(O)COc2ccccc2C)CC1 (stereo not drawn) | > 26 µM (inactive) |
| Cc1[nH]n(-c2ccc(Br)cc2)c(=O)c1/C=N/NC(=O)c1ccccc1 | > 26 µM (inactive) |
| Cc1onc(-c2ccccc2)c1C(=O)NC(=S)NNC(=O)c1ccc(O)cc1O | > 26 µM (inactive) |
| Cc1cc(N2CCN(C)CC2)ccc1NC(=O)c1c2c(nc3ccccc13)CCN(Cc1ccccc1)C2 | 14.7 µM |
| COc1ccc(/C=C/C(=O)c2ccc([N+](=O)[O-])o2)cc1OC | > 26 µM (inactive) |
| CC(C)(C)c1ccc(OCc2ccc(C(=O)N/N=C/c3ccc(O)c(O)c3)cc2)cc1 | > 26 µM (inactive) |
| COc1cccc(/C=N/Nc2nc(Nc3ccccc3)nc(-n3nc(C)cc3C)n2)c1O | > 26 µM (inactive) |
| CC(=O)c1cccc(N=c2scc(-c3ccc(S(=O)(=O)N4CCOCC4)cc3)n2CCO)c1 | > 26 µM (inactive) |

| Compound | AC50 |
| --- | --- |
| C=CCNC1=C(Cl)C(=O)c2ccccc2C1=O | > 26 µM (inactive) |
| Cc1ccc(/C=N/NC(=O)c2c(-c3ccccc3)noc2C)c(O)c1 | > 26 µM (inactive) |
| CC(C)(C)c1cc[n+](C2=C([O-])c3ccccc3C(=O)/C2=N\S(=O)(=O)c2ccccc2)cc1 | > 26 µM (inactive) |
| O=C(Nc1nc(NC(=O)c2ccco2)n(-c2ccccc2)n1)c1ccccc1 | > 26 µM (inactive) |
| Cc1ccc(OCCN2CCN(c3ncnc4sc(C)c(C)c34)CC2)cc1 | > 26 µM (inactive) |
| COc1cccc(/C=N/Nc2cc(C)nc(-c3ccccc3O)n2)c1O | > 26 µM (inactive) |
| CCCCC(=O)NC(c1ccc(N(CC)CC)cc1)c1ccc2cccnc2c1O (stereo not drawn) | > 26 µM (inactive) |
| O=C(NC1=C(Nc2ccc(F)cc2)C(=O)c2ccccc2C1=O)c1ccc(Cl)cc1 | > 26 µM (inactive) |
| CC(=O)c1ccc(OCc2cc(C(=O)N3CCCCC3c3cccnc3)no2)cc1 (stereo not drawn) | > 26 µM (inactive) |
| O=[N+]([O-])c1ccc(NC(=S)NCCc2ccc(F)cc2)cc1 | > 26 µM (inactive) |
| Cc1cc(C)c2sc(NNC(=O)c3ccc(S(=O)(=O)N4CCc5ccccc5C4)cc3)nc2c1 | > 26 µM (inactive) |
| CCN(CC)S(=O)(=O)c1ccc(Oc2ccc(S(=O)(=O)N(CC)CC)cc2)cc1 | > 26 µM (inactive) |
| CC1CCC(C(C)C)C(OC(=O)Cn2c(-c3ccc(Br)cc3)[n+](C)c3ccccc32)C1 (stereo not drawn) | > 26 µM (inactive) |
| Cc1ccc(-c2sc(-c3ccccc3)nc2CC(=O)Nc2ccccc2F)cc1 | > 26 µM (inactive) |
| COc1cccc(N2CCN(c3ncnc4c3[nH]c3ccc(F)cc34)CC2C)c1 (stereo not drawn) | > 26 µM (inactive) |
| CCc1ccc(S(=O)(=O)/N=C2\C=C(Nc3ccc(C(=O)O)cc3)C(=O)c3ccccc32)cc1 | > 26 µM (inactive) |
| Cc1ccc2nc(NC(=O)/C=C/c3ccc4c(c3)OCO4)sc2c1 | > 26 µM (inactive) |
| COc1ccc(NS(=O)(=O)c2ccc(N3CCOCC3)c(N)c2)cc1 | > 26 µM (inactive) |
| Cc1cccn2c(Nc3ccccc3)c(-c3ccccn3)nc12 | > 26 µM (inactive) |
| O=C(N/N=C/c1cc(Br)ccc1OC(=O)c1ccc(Br)cc1)c1ccncc1 | > 26 µM (inactive) |
| CC(=O)c1cccc(NS(=O)(=O)c2ccc(N/C=C\C(=O)c3ccc(F)cc3)cc2)c1 | > 26 µM (inactive) |
| CCn1c(C)nc2cc(C(=O)N/N=C/c3cccc(O)c3O)ccc21 | > 26 µM (inactive) |
| CN(C)c1ccc(/C=C/c2ccc3ccccc3n2)cc1 | > 26 µM (inactive) |
| CCN1CCN(c2ccc(S(=O)(=O)N3CCCCC3)cc2NC(=O)c2ccc([N+](=O)[O-])s2)CC1 | > 26 µM (inactive) |

| Compound | AC50 |
| --- | --- |
| O=C(Nc1nc2ccccc2[nH]1)c1ccccc1F | > 26 µM (inactive) |
| C(=C\c1nc(N2CCCCCC2)c2ccccc2n1)/c1ccccc1 | > 26 µM (inactive) |
| COc1ccc(C2CC(c3ccc4ccccc4c3OC(C)=O)=NN2C(C)=O)cc1 (stereo not drawn) | > 26 µM (inactive) |
| C#CC(=O)N(c1cccc(OC)c1)C(C(=O)NC1CCCC1)c1cccs1 (stereo not drawn) | > 26 µM (inactive) |
| COc1cc(C(=O)Oc2c(CN3CCOCC3)cc(Cl)c3cccnc23)cc(OC)c1OC | > 26 µM (inactive) |
| CCCCNc1c(-c2ccc(OC)c(SC(C)CC)c2)nc2ccc(C)cn12 (stereo not drawn) | > 26 µM (inactive) |
| CCOc1ccc(Nc2cc(C)nc(-n3nc(C)cc3C)n2)cc1 | > 26 µM (inactive) |
| CC(C)[C@H]1C(=O)O[C@H](C(C)C)C(=O)N(C)[C@@H](C(C)C)C(=O)O[C@H](C(C)C)C(=O)N(C)[C@@H](C(C)C)C(=O)O[C@H](C(C)C)C(=O)N1C | > 26 µM (inactive) |
| O=C1C(Cl)=C(NCc2cccnc2)C(=O)c2ccccc21 | > 26 µM (inactive) |
| Cc1cccc(/C=N/NC(=O)c2c(-c3ccccc3)noc2C)c1O | > 26 µM (inactive) |
| O=C(Nc1ccc(N2CCN(C(=O)c3ccc(Cl)cc3)CC2)cc1)c1cccnc1 | > 26 µM (inactive) |
| Cc1ccn2c(Nc3ccccc3)c(-c3ccccn3)nc2c1 | > 26 µM (inactive) |
| CC1=[N+](C)c2ccc3ccccc3c2C1(C)C | > 26 µM (inactive) |
| Cc1ccc2nc(/C(C#N)=C\c3ccc([N+](=O)[O-])o3)[nH]c2c1 | > 26 µM (inactive) |
| Cc1ccc(C(=O)Nc2cccc3[nH]c(C(F)(F)F)nc23)cc1 | > 26 µM (inactive) |
| CCOc1cccc(/C=N/NC(=O)c2ccc3c(c2)OCCO3)c1O | > 26 µM (inactive) |
| Cc1ccc(C2C(C=Nc3c(C)n(C)n(-c4ccccc4)c3=O)=C(c3ccccc3)Oc3ccccc32)cc1 (stereo not drawn) | > 26 µM (inactive) |
| CC1CCCCC1NS(=O)(=O)c1ccc(S(=O)(=O)NCc2ccncc2)cc1 (stereo not drawn) | > 26 µM (inactive) |
| CCC(CO)[n+]1c(C)cc(/C=C2\Sc3ccccc3N2Cc2ccccc2)cc1C (stereo not drawn) | > 26 µM (inactive) |
| Cc1ccc2c(c1)N(C)/C(=C/c1cccc[n+]1CCO)S2 | > 26 µM (inactive) |
| O=C(c1ccc([N+](=O)[O-])s1)N1CCN(c2cccc(Cl)c2)CC1 | > 26 µM (inactive) |
| Cc1c2ccncc2c(C)c2c1[nH]c1ccccc12 | 1.11 µM |
| CC(=O)Oc1c(Cl)cc(N(C(C)=O)S(=O)(=O)c2ccccc2)c2ccccc12 | > 26 µM (inactive) |
| O=C(Nc1nc(-c2ccccn2)cs1)c1cc(Cl)ccc1[N+](=O)[O-] | > 26 µM (inactive) |

| Compound | AC50 |
| --- | --- |
| COc1ccc(CNCCC(c2ccccc2)c2ccc3c(c2)OCO3)cc1 (stereo not drawn) | > 26 µM (inactive) |
| O=C(CC(O)(C(F)(F)F)C(F)(F)F)Nc1ccc(Cl)c(Cl)c1 | > 26 µM (inactive) |
| CC(C)(C)OC(=O)NCCCCCc1cn([C@@H](CO)C(=O)NCCCCCCCCCCC(=O)N2CCN(C(=O)OC(C)(C)C)CC2)nn1 | > 26 µM (inactive) |
| CCN(CC)c1ccc(/C=N/NC(=O)c2ccco2)c(O)c1 | > 26 µM (inactive) |
| Cc1ccc(NC(=O)c2cc(S(=O)(=O)NCCC3=CCCCC3)ccc2F)cc1F | > 26 µM (inactive) |
| C/C(=N\N1C(=O)c2ccccc2NC1c1ccccc1)c1ccccc1O (stereo not drawn) | > 26 µM (inactive) |
| N=c1c2c(-c3ccccc3)c(-c3ccccc3)n(Cc3ccco3)c2ncn1CCCN1CCOCC1 | 16.7 µM |
| Clc1ccc(C(Cn2ccnc2)OCc2csc3c(Cl)cccc23)c(Cl)c1 (stereo not drawn) | > 26 µM (inactive) |
| CCCc1sc(N/N=C/c2ccccn2)nc1-c1ccc(F)cc1 | > 26 µM (inactive) |
| CC1(C)Cc2c(c(N3CCOCC3)nc3sc4c(NN)ncnc4c23)CS1 | > 26 µM (inactive) |
| Cc1ccc(O)c(N=Nc2nccs2)c1 | > 26 µM (inactive) |
| CCCC(=O)NC(c1cccs1)c1cc(Cl)c2cccnc2c1O (stereo not drawn) | > 26 µM (inactive) |
| COc1ccccc1/C=C1\SC(=O)N(CCC(=O)NCCCn2ccnc2)C1=O | > 26 µM (inactive) |
| COc1ccc(-c2ccc3c(c2)S(=O)(=O)c2cccc(C(=O)NCCOc4ccccc4Cl)c2C3=O)cc1OC | > 26 µM (inactive) |
| CCN(CC)CCCNC1=C(Cl)C(=O)c2ccccc2C1=O | > 26 µM (inactive) |
| N#C/C(=N\Nc1ccc(Cl)cc1)C(=O)c1ccccc1 | > 26 µM (inactive) |
| CCCOc1cc(NCc2ccccc2)c2ncn(C(C)C)c2c1 | > 26 µM (inactive) |
| CCOc1ccc(C(=O)N/N=C(\c2ccccc2)c2ccccn2)cc1 | > 26 µM (inactive) |
| CCS(=O)(=O)c1ncc(Cl)c(C(=O)Nc2ccc(S(=O)(=O)N(C)c3ccccc3)cc2)n1 | > 26 µM (inactive) |
| COc1ccc(C(CCNCc2ccc(OC(C)C)cc2)c2ccccc2OC)cc1 (stereo not drawn) | > 26 µM (inactive) |
| CCn1cc(/C=C/c2cc[n+](C)cc2)c2ccccc21 | > 26 µM (inactive) |
